Laboratory results as given in patent US20090220528A1, “Stimulation of Toll-Like Receptors on T Cells” (THE TRUSTEES OF THE UNIVERISTY OF PENNSYLVANIA CNETER FOR …, priority 2005, published 2009).

Key:
[1] = system: activated CD4+ T cells; test: Survival of activated CD4+ T cells treated with TLR ligands (7-AAD/annexin exclusion); type: cell-based, mouse
Method: All CD4^+ T cell activation was conducted in complete culture medium composed of RPMI 1640 (Life Technologies, Grand Island, N.Y.), 1.5 μM 2-ME (Sigma-Aldrich, St. Louis, Mo.), 50 μg/ml gentamicin (Life Technologies), and 10% FCS (Mediatech, Washington, D.C.) at 37° C. in 5% CO2. Purified CD4^+ T cells from either BALB/c, MyD88^−/−, or MyD88^+/+ wild-type control littermates were activated on 24-well plates (Costar, Cambridge, Mass.) coated with 1.0 μg/ml CD3ε monoclonal antibody (2C11; BD Biosciences) and 1.0 μg/ml CD28 monoclonal antibody (37.51; BD Biosciences) for 16 hours. In experiments with DO11.10 mice, 1 μg/ml of pOVA, a peptide derived from chicken albumin amino acid residues […] was added to 2×10^6/ml erythrocyte-depleted splenocyte and lymph node cell pools for 16 hours. Following pOVA-induced activation, CD4^+ T cell APC complexes were disrupted with 5 mM EDTA/PBS for 10 minutes at 25° C., washed twice in PBS, and purified with magnetic beads using the MACS CD4^+ T cell isolation kit as described elsewhere herein. Purity of activated DO11.10 CD4^+ T cells exceeded 96%. As described elsewhere herein, the remainder of the contaminants by FACS analysis were CD8^+ T cells, with APCs at <0.1% by RT-PCR.
(§1) Following activation, purified CD4^+ T cells were washed twice in PBS and replated in culture medium at 10^6/ml. Cultures were left untreated or treated with either TLR ligands and/or inhibitors for indicated times and concentrations. Following incubation, CD4^+ T cells were washed twice in PBS/2% FBS and stained with CD4-allophycocyanin monoclonal antibody and 7-aminoactinomycin D (7-AAD; BD PharMingen) or annexin (BD PharMingen) and survival was assessed by exclusion of either of these two stains. For absolute live cell counts 50,000 CD45.1^+ splenocytes labeled with anti-CD45.1-PE monoclonal antibody (A20; BD PharMingen) were also added to stained CD4^+ T cell sample FACS tubes just before FACS analysis. Live CD4^+ T cell counts were calculated by taking the ratio of the number of CD4^+CD45.1^−7-ADD^− events collected to the number CD45.1^+ events collected and multiplying by 50,000. Proliferation was measured by CFSE dye dilution as previously described (Wells et al., 1997 J. Clin. Invest. 100:3173).
TLR ligands directly promote the survival of several cell types including neutrophils, DC, and B cells (Lundqvist et al., 2002, Cancer Immunol. Immunother. 51:139; Sabroe et al., 2003, J. Immunol. 170:5268; Grillot et al., 1996, J. Exp. Med. 183:381; Grillot et al., 1996, J. Exp. Med. 183:381). Since it was observed that activated CD4^+ T cells also express TLRs and signal in response to TLR ligands, the next set of experiments were designed to assess whether TLR ligands could directly enhance survival of these cells. DO11.10 CD4^+ T cells, that encode a transgenic TCR specific for a peptide derived from chicken OVA (pOVA), were activated with pOVA-pulsed APCs for 16 hours ex vivo, purified by magnetic beads to remove all non-CD4^+ T cells, and replated in unsupplemented culture medium in the absence or presence of TLR ligands. Survival was then assessed 72 hours following activation (FIG. 3A). Poly(I:C) or CpG DNA induced increases of activated CD4^+ T cell survival from 38% to 71 and 73%, respectively.

[2] = system: MyD88-/- activated CD4+ T cells; test: TLR ligand-mediated survival of MyD88-/- activated CD4+ T cells; type: cell-based, mouse; conditions: FIG. 4B
Description: BALB/c mice were purchased from The Jackson Laboratory (Bar Harbor, Me.). DO11.10 mice on the BALB/c background have been described previously (Hsieh et al., 1992, Proc. Natl. Acad. Sci. USA 89:6065). MyD88^−/− mice have been described previously (Adachi et al., 1998, Immunity 9:143). For these experiments MyD88^+/− mice were backcrossed at least five times onto a C57BL/6 background and intercrossed to generate MyD88^−/− and MyD88^+/+ wild-type control littermates.
as §1, with “For absolute live cell counts 50,000 CD45.1^+ splenocytes labeled with anti-CD45.1-PE monoclonal antibody (A20; BD PharMingen) were also added to stained CD4^+ T cell sample FACS tubes just before FACS analysis.” left out, “100:3173). […]” for “100:3173).”

poly(I:C)
activated CD4+ T cell survival ([1]; 72 hours following activation, DO11.10 CD4+ T cells activated with pOVA-pulsed APCs, purified, untreated 38% (FIG. 3A)): 71% | effect on activated CD4+ T cell survival (dose response) ([1]; FIG. 3B, purified activated CD4+ T cells): dose-dependent manner | activated CD4+ T cell survival in TLR ligand-treated cultures spiked with APCs ([1]; T cell-depleted lymph node cells and splenocytes (APC) added): significantly increased dose-responsive survival | enhanced survival response in MyD88-/- activated CD4+ T cells [2]: left intact
